Read-outs that look alike come from different tables or passages of the source. Blank lines part the entries; values can stand above or below the molecule they belong to.
Legend:
[1] = test system: KeratinoSens reporter keratinocytes (luciferase gene under control of the ARE element of the AKR1C2 gene); experiment: KeratinoSens ARE-Nrf2 luciferase assay; assay type: cell-based; details: for ECKS1.5: extrapolated concentration for 1.5 fold luciferase induction; for ECKS4.5: extrapolated concentration for 4.5 fold luciferase induction; for Classification: KeratinoSens, luciferase induction greater than 1.5-fold at non-cytotoxic concentrations
Method: (§1) KeratinoSens Assay for Sensitization and Cellular Viability. The KeratinoSens™ assay was performed according to the OECD guidelines ([OECD, 2018]). Compounds were incubated at 12 concentrations (0.98–2000 μM) for 48 h with cinnamic aldehyde as the positive control. The experiment was repeated on three independent occasions.
In Vitro Skin Sensitization: KeratinoSens ARE-Nrf2 Luciferase Assay. […] ECKS1.5 represents the extrapolated concentration for which induction of luciferase activity is above the 1.5 fold threshold (i.e., 50% enhanced luciferase activity). The ECKS4.5 values were used for comparison of sensitizing potency.

[2] = Cellular viability (MTT) in the KeratinoSens assay; assay type: cell-based; details: human, KeratinoSens reporter keratinocytes, 50% reduction in cellular viability, read-out: Cytotoxicity IC50
Method: as §1

[3] = test system: model peptide AcPHCKRM; experiment: Reactivity toward the model peptide AcPHCKRM (peptide depletion, HPLC/ESI-MS); details: 10 mM compound, 1 mM AcPHCKRM
Method: All solvents were degassed with argon prior to use. […] Monoepoxides PGE, 1 or 2 were prepared in DMSO (40 mM, 100 μL) together with potassium phosphate buffer (100 mM, pH 7.4) (200 μL) and separately added to a vial purged with argon containing AcPHCKRM dissolved in DMSO (4 mM, 100 μL).
Based on our previous studies regarding the chemical reactivity of the epoxide-containing compounds ([O’Boyle et al., 2014]; [Ponting et al., 2019]), the depletion of the nucleophilic hexapeptide Ac-Pro-His-Cys-Lys-Arg-Met-OH (AcPHCKRM) was analyzed in reaction mixtures at pH 7.4 with a 10-fold excess of the respective test chemical in a mixture of phosphate buffer and DMSO.

[4] = test system: KeratinoSens reporter keratinocytes (luciferase gene under control of the ARE element of the AKR1C2 gene); details: cited from earlier work
[5] = parameters: method as in O’Boyle et al., 2014; details: ref O’Boyle et al., 2014, cited from earlier work
[6] = test system: mice and guinea pigs; details: cited from earlier work
[7] = test system: KeratinoSens reporter keratinocytes; details: read-out: Cytotoxicity IC50; 50% reduction in cellular viability, MTT assay; ref Delaine et al., 2011; cited from earlier work
[8] = test system: CBA/Ca mice; details: cited from earlier work
[9] = test system: CBA/Ca mice; experiment: Murine local lymph node assay (LLNA); assay type: in vivo
Method: (§2) Experimental Animals. Female CBA/Ca mice, 7 or 9 weeks of age, were purchased from NOVA SCB Charles River, Germany. The mice were housed in HEPA filtered airflow cages and kept on standard laboratory diet and water ad lib. The regional ethics committee, Jordbruksverket, approved the protocol and the procedure was performed in accordance with the guidelines. Sensitization Potential of PinoDGE in Mice. […] Computational Techniques. Reactivity of cysteine residues toward the compounds under investigation was modeled as reactivity toward methanethiolate. Reactivity calculations were carried out at the B3LYP-D3/6–31+G**([Stephens et al., 1994]; [Becke, 1988]; [Slater, 1974]; [Goerigk and Grimme, 2011]; [Grimme et al., 2010]; [Ditchfield et al., 1971]) level of theory in Jaguar (Schrodinger LLC, N. Y. Jaguar, version 7.6, 2009). Further experimental details are contained in the supplementary information. Cross-Linking Procedure and Thermogravimetric Analysis (TGA).
(§3) In Vivo Skin Sensitizing Potency Studies. The LLNA was used to assess the skin sensitizing potency of PinoDGE. […] The standard vehicle, acetone: olive oil (AOO) (4:1), was initially used as the vehicle. […] Pure acetone is described as a suitable vehicle in the LLNA ([Jowsey et al., 2008]); however, a closer match to AOO was desired, leading to the choice of AOO 16:1.

[10] = Solubility in the LLNA test vehicle; assay type: physicochemical
Source text: as §3

[11] = Cross-linking with TETA and thermogravimetric analysis (TGA); assay type: physicochemical
Method: as §2
Cross-Linking of PinoDGE with TETA. […] Initial decomposition temperature (IDT) indicated the apparent thermal stability of the epoxy resin.

[12] = cross-linked with TETA, TGA under nitrogen
[13] = cured epoxy resin, Horwitz-Metzger equation
[14] = after 45 min, pH 7.4 phosphate buffer/DMSO
[15] = LLNA, ref Niklasson et al., 2009
[16] = AOO 16:1, 10% w/v (0.21 M), precipitating from solution on the ears of the mice

Structure (SMILES): COc1ccccc1OCC1CO1 (centres unmarked) [Compound 1, 2-((2-methoxyphenoxy)methyl)oxirane]
- ECKS1.5 [1]: 23 µM
- ECKS4.5 [1]: 64 µM

Structure (SMILES): O=[N+]([O-])c1ccccc1OCC1CO1 (centres unmarked) [Compound 2, 2-((2-nitrophenoxy)methyl)oxirane]
- IC50 at 48 h [2]: 88 µM
- peptide remaining ([3]; after 40 min, pH 7.4): 28%
- peptide remaining ([3]; at 200 min, pH 7.4): 24%
- Classification [1]: Sensitizer
- ECKS1.5 [1]: 12 µM
- ECKS4.5 [1]: 37 µM

Structure (SMILES): CC(C)(c1ccc(OCC2CO2)cc1)c1ccc(OCC2CO2)cc1 (centres unmarked) [DGEBA, diglycidyl ether of bisphenol A]
- ECKS1.5 [4]: 5.2 µM
- ECKS4.5 [4]: 10 µM
- IDT (initial decomposition temperature) [5, 12]: 358 ˚C
- Rmax (maximum weight loss rate) [5, 12]: −1.58 %/˚C
- Tmax (temperature at maximum rate of weight loss) [5, 12]: 382 ˚C
- Ea (activation energy for decomposition) [5, 13]: 22.9 kcal/mol
- Classification as sensitizer ([6]; mice and guinea pigs, ref Thorgeirsson et al., 1978, Delaine et al., 2011, Pontén et al., 2002, Basketter et al., 2005): strong sensitizers
- IC50 [7]: 22 µM
- peptide remaining [3, 14]: 37%
- peptide remaining ([3]; after 85 min, pH 7.4): 18%
- peptide remaining ([3]; after 205 min, pH 7.4): 7%
- EC3 [8, 15]: 0.036 M

Structure (SMILES): c1cc(OCC2CO2)ccc1Cc1ccc(OCC2CO2)cc1 (centres unmarked) [DGEBF, diglycidyl ether of bisphenol F]
- Classification as sensitizer ([6]; in vivo): strong sensitizers

- EC3 ([9]; control experiment in AOO 16:1): 11.8 % w/v
Structure (SMILES): CCCCCCC(C=O)=Cc1ccccc1 [HCA, hexylcinnamic aldehyde, reference compound]
- EC3 ([8]; reported values in 4:1 AOO, ref OECD, 2010): 4.4–14.7 % w/v

Structure (SMILES): c1ccc(OCC2CO2)cc1 (centres unmarked) [PGE, phenylglycidyl ether]
- Imax (fold induction) ([4]; average maximal induction of gene activity, ref Delaine et al., 2011): 56 fold induction
- ECKS1.5 ([4]; extrapolated concentration for 1.5 fold luciferase induction, ref Delaine et al., 2011): 16 µM
- ECKS4.5 ([4]; extrapolated concentration for 4.5 fold luciferase induction, ref Delaine et al., 2011): 63 µM
- IC50 [7]: 182 µM
- peptide remaining ([3]; after 40 min, pH 7.4): 35%
- peptide remaining ([3]; at 200 min, pH 7.4): 26%
- EC3 [8, 15]: 0.031 M
- LLNA classification ([8]; ref Niklasson et al., 2009): strong sensitizer

- Solubility in vehicle ([10]; AOO 16:1, precipitated from a 10% w/v solution): up to 8 % w/v
- Solubility in vehicle ([10]; AOO (4:1)): ≤ 5 % w/v
- solubility ([10]; acetone:olive oil (AOO) 4:1, organic solvent or mixture, AOO (4:1)): ≤ 110 mM
- solubility ([10]; acetone:olive oil (AOO) 16:1, organic solvent or mixture, AOO 16:1, precipitated from a 10% w/v solution): ≤ 170 mM
- maximum rate of degradation (Rmax) relative to DGEBA ([11]; Rmax as percentage of that of DGEBA): 58%
- IDT (initial decomposition temperature) [11, 12]: 338 ˚C
- Rmax (maximum weight loss rate) [11, 12]: −0.92 %/˚C
- Tmax (temperature at maximum rate of weight loss) [11, 12]: 370 ˚C
- Ea (activation energy for decomposition) [11, 13]: 30.6 kcal/mol
- IDT lower than that of DGEBA ([11]; difference to DGEBA polymer): 20 °C
- Tmax lower than that of DGEBA ([11]; difference to DGEBA polymer): 12 °C
- (3H)thymidine incorporation ([9]; AOO 4:1, 0.10% w/v (0.0021 M)): 280 dpm/lymph node
- SI ([9]; AOO 4:1, 0.10% w/v (0.0021 M)): 0.94
- (3H)thymidine incorporation ([9]; AOO 4:1, 1.0% w/v (0.021 M)): 368 dpm/lymph node
- SI ([9]; AOO 4:1, 1.0% w/v (0.021 M)): 1.23
- (3H)thymidine incorporation ([9]; AOO 4:1, 2.5% w/v (0.053 M)): 166 dpm/lymph node
- SI ([9]; AOO 4:1, 2.5% w/v (0.053 M)): 0.56
- (3H)thymidine incorporation ([9]; AOO 4:1, 3.0% w/v (0.064 M)): 325 dpm/lymph node
- SI ([9]; AOO 4:1, 3.0% w/v (0.064 M)): 1.09
- (3H)thymidine incorporation ([9]; AOO 4:1, 5.0% w/v (0.11 M)): 327 dpm/lymph node
- SI ([9]; AOO 4:1, 5.0% w/v (0.11 M)): 1.10
- (3H)thymidine incorporation ([9]; AOO 16:1, 2.0% w/v (0.043 M)): 130 dpm/lymph node
- SI ([9]; AOO 16:1, 2.0% w/v (0.043 M)): 0.52
- (3H)thymidine incorporation ([9]; AOO 16:1, 4.0% w/v (0.085 M)): 180 dpm/lymph node
- SI ([9]; AOO 16:1, 4.0% w/v (0.085 M)): 0.73
- (3H)thymidine incorporation ([9]; AOO 16:1, 6.0% w/v ([…])): 195 dpm/lymph node
- SI ([9]; AOO 16:1, 6.0% w/v ([…])): 0.79
- (3H)thymidine incorporation ([9]; AOO 16:1, 8.0% w/v (0.17 M)): 480 dpm/lymph node
- SI ([9]; AOO 16:1, 8.0% w/v (0.17 M)): 1.94
- (3H)thymidine incorporation [9, 16]: 180 dpm/lymph node
- SI [9, 16]: 0.73
- EC3 ([9]; LLNA, AOO 4:1 and AOO 16:1): > 0.17 M
- SI ([9]; any of the concentrations tested, both vehicles): ≤ 3
Structure (SMILES): COc1cc([C@H]2OC[C@H]3[C@@H]2CO[C@@H]3c2ccc(OCC3CO3)c(OC)c2)ccc1OCC1CO1 (some centres unmarked) [PinoDGE, pinoresinol diglycidyl ether]
- IC50 at 48 h [2]: 24 µM
- LLNA classification ([9]; concentrations up to 0.17 M): not classified as a skin sensitizer
- peptide remaining [3, 14]: 8%
- peptide remaining ([3]; after 85 min, pH 7.4): 5%
- Classification [1]: skin sensitizer
- ECKS1.5 [1]: 2.5 µM
- ECKS4.5 [1]: 7.4 µM
